Read-outs that look alike come from different tables or passages of the source.
System: ECHCG=Echinochloa crus-galli
Experiment: Postemergence foliar-applied herbicides and safeners, visual injury of weed
Format: in vivo
Conditions: for pest or weed control at 140 g/ha: Echinochloa crus-galli, foliar, 480 h, read-out: Visual Injury (%) - 20 DAA ECHCG Obs, foliar, Compound A form 140 g ae/ha alone; for Mean Visual Injury (%) - 20-22 DAA ECHCG: post-emergence foliar
Text: Seeds or nutlets of the desired test plant species were planted in a soil matrix prepared by mixing a loam or sandy loam soil (e.g., 28.6 percent silt, 18.8 percent clay, and 52.6 percent sand, with a pH of about 5.8 and an organic matter content of about 1.8 percent) and calcareous grit in an 80 to 20 ratio. The soil matrix was contained in plastic pots with a surface area of 84.6 square centimeters (cm^2). When required to ensure good germination and healthy plants, a fungicide treatment and/or other chemical or physical treatment was applied. The plants were grown for 8-22 days in a greenhouse with an approximate 14 hr photoperiod which was maintained at about 29° C. during the day and 26° C. during the night. Nutrients (Peters Excel 15-5-15 5-Ca 2-Mg and iron chelate) were applied in the irrigation solution as needed and water was added on a regular basis. Supplemental lighting was provided with overhead metal halide 1000-Watt lamps as necessary. The plants were employed for testing when they reached the second or third true leaf stage.
Treatments consisted of the acid or esters of 4-amino-3-chloro-5-fluoro-6-(4-chloro-2-fluoro-3-methoxy-phenyl)pyridine-2-carboxylic acid (compound A) and various safener components alone and in combination. Forms of compound A were applied on an acid equivalent basis. Safener components were applied on an active ingredient or acid equivalent basis depending on the compound.
Treatment requirements were calculated based upon the rates being tested, the concentration of active ingredient or acid equivalent in the formulation, and a 12 mL application volume at a rate of 187 L/ha.
For treatments comprised of formulated compounds, measured amounts of compounds were placed individually in 25 mL glass vials and diluted in a volume of 1.25% (v/v) Agri-dex crop oil concentrated to obtain 12× stock solutions. […] Application solutions were prepared by adding an appropriate amount of each stock solution (e.g., 1 mL) and diluted to the appropriate final concentrations with the addition of 10 mL of an aqueous mixture of 1.25% (v/v) Agri-dex crop oil concentrate so that the final spray solutions contained 1.25% (v/v) Agri-dex crop oil concentrate.
For treatments comprised of technical compounds, weighed amounts were placed individually in 25 mL glass vials and dissolved in a volume of 97:3 v/v acetone/DMSO to obtain 12× stock solutions. […] Application solutions were prepared by adding an appropriate amount of each stock solution (e.g., 1 mL) and diluted to the appropriate final concentrations with the addition of 10 mL of an aqueous mixture of 1.5% (v/v) Agri-dex crop oil concentrate so that the final spray solutions contained 1.25% (v/v) Agri-dex crop oil concentrate. When technical materials were used, the concentrated stock solutions were added to the spray solutions so that the final acetone and DMSO concentrations of the application solutions were […], respectively.
For treatments comprised of formulated and technical compounds, weighed amounts of the technical materials were placed individually in 25 mL glass vials and dissolved in a volume of 97:3 v/v acetone/DMSO to obtain 12× stock solutions, and measured amounts of the formulated compounds were placed individually in 25 mL glass vials and diluted in a volume of 1.5% (v/v) Agri-dex crop oil concentrate or water to obtain 12× stock solutions. […] Application solutions were prepared by adding an appropriate amount of each stock solution (e.g., 1 mL) and diluted to the appropriate final concentrations with the addition of an appropriate amount of an aqueous mixture of 1.5% (v/v) Agri-dex crop oil concentrate so that the final spray solutions contained 1.25% (v/v) Agri-dex crop oil concentrate. When required, additional water and/or 97:3 v/v acetone/DMSO was added to individual application solutions so that the final acetone and DMSO concentrations of the application solutions being compared were 8.1% and 0.25%, respectively. […]

COc1c(Cl)ccc(-c2nc(C(=O)O)c(Cl)c(N)c2F)c1F [Acid, 4-amino-3-chloro-6-(4-chloro-2-fluoro-3-methoxyphenyl)-5-fluoropyridine-2-carboxylic acid]
pest or weed control at 140 g/ha (trial of Tables 3,4,6,10,12,14): 98%
pest or weed control at 140 g/ha (trial of Tables 5,9,11,13): 96%
Mean Visual Injury (%) - 20-22 DAA ECHCG (2 g ae/ha): 57%
Mean Visual Injury (%) - 20-22 DAA ECHCG (4 g ae/ha): 81%
Mean Visual Injury (%) - 20-22 DAA ECHCG (8 g ae/ha): 91%
Mean Visual Injury (%) - 20-22 DAA ECHCG (16 g ae/ha): 95%
Mean Visual Injury (%) - 20-22 DAA ECHCG (32 g ae/ha): 96%

COc1c(Cl)ccc(-c2nc(C(=O)OCc3ccccc3)c(Cl)c(N)c2F)c1F [Benzyl]
pest or weed control at 140 g/ha (trial of Tables 3,4,6,10,12,14): 98%
pest or weed control at 140 g/ha (trial of Tables 5,9,11,13): 99%
Mean Visual Injury (%) - 20-22 DAA ECHCG (2 g ae/ha): 63%
Mean Visual Injury (%) - 20-22 DAA ECHCG (4 g ae/ha): 91%
Mean Visual Injury (%) - 20-22 DAA ECHCG (8 g ae/ha): 94%
Mean Visual Injury (%) - 20-22 DAA ECHCG (16 g ae/ha): 95%
Mean Visual Injury (%) - 20-22 DAA ECHCG (32 g ae/ha): 96%

Reference: patent publication US10172355B2, “Safened herbicidal compositions including 4-amino-3-chloro-5-fluoro-6-(4-chloro-2-fluoro-3-methoxyphenyl)pyridine-2-carboxylic acid or a derivative thereof for use in rice” (Dow AgroSciences LLC, priority 2012, dated 2019)
